The source of these data is patent publication US5288872A, “Compounds for treatment of neurodegenerative diseases” (priority 1992, dated 1994).

Assay [1] has as its system synaptosomes from the striatal area of rat brain. Description: Dopamine release from striatal synaptosomes of rat brain. Format: cell-based, rat (Sprague-Dawley). As to conditions: read-out: Dopamine Release (percent release relative to S(-)nicotine). On the procedure:
Dopamine release was measured by preparing synaptosomes from the striatal area of rat brain generally obtained from Sprague-Dawley rats according to the procedures set forth by Nagy, et al., J. Neurochem., Vol. 43, pp. 1114-1123 (1984). Striata from 4 rats were homogenized in 2 ml of 0.32M sucrose buffered with 5 mM HEPES (pH 7.5), using a glass-teflon tissue grinder. The homogenate was diluted to 5 ml with additional homogenization solution and centrifuged at 1000×g for 10 min. This procedure was repeated on the new pellet and the resulting supernatant was centrifuged at 12,000×g for 20 min. […] Using this method, 30 to 90 percent of the dopamine was taken up into the synaptosomes, as determined by scintillation counting following filtration through glass fiber filters soaked with 0.5 percent polyethyleneimine. […] After the addition of a 0.2 ml of a 20 μM solution of ligand, the perfusate was collected into scintillation vials at 1 min. intervals and the dopamine released was quantified by scintillation counting. Peaks of radioactivity released above background were summed and the average basal release during that time was subtracted from the total. Release was expressed as a percentage of release obtained with an equal concentration of S(-)nicotine.

The next assay concerns the target nicotinic receptors. Nature of the assay: Inhibition of L-[^3 H] nicotine binding to mouse brain membrane preparations. Also on record: species or system mouse (DBA strain). As to conditions: mouse brain membranes, 2 hr. incubation at 4° C., pH 7.5, racemic mixture of ligand. As for the experimental part: Mice (DBA strain) were maintained on a 12 hour light/dark cycle and were allowed free access to water and food supplied by Wayne Lab Blox, Madison, Wis. Animals used in the present studies were 60 to 90 days of age and weighed 20 to 25 g. Brain membrane preparations were obtained from pooled brain tissue of both males and females.
Mice were killed by cervical dislocation. Brains were removed and placed on an ice-cold platform. […] Protein was determined by the method of Lowry, et al., J. Biol. Chem., Vol. 193, pp. 265-275 (1951), using bovine serum albumin as the standard.
The binding of L-[^3 H] nicotine was measured using a modification of the method of Romano, et al., Science, Vol. 210, pp. 647-650 (1980) as described previously by Marks, et al., Mol. Pharmacol., Vol. 30, pp. 427-436 (1986). The binding of L-[^3 H] nicotine was measured using a 2 hr. incubation at 4° C. […] Nonspecific binding was determined by inclusion of 10 μM nonradioactive nicotine in the incubations. The inhibition of L-[^3 H] nicotine binding by test compounds was determined by including one of eight different concentrations of the test compound in the incubation. […] Inhibition constants (Ki values) were calculated from the IC50 values using the method of Cheng, et al., Biochem. Pharmacol., Vol. 22, pp. 3099-3108 (1973).

As usually defined, the Ki is a dissociation constant, usually derived from enzyme kinetics or from competition with a known ligand. As to `CC(=O)C1=CCC2CCC1N2` (stereo not shown) [Norferruginine, norferruginine], the Emax in assay [1] turned out to be 25%. Further, the Ki at nicotinic receptors is 1100 ± 300 nM.

`CC(=O)C1=CCC2CCC1N2C` (stereo not shown) [Ferruginine, ferruginine]: in assay [1], the Emax was determined as 15%. Further, the Ki at nicotinic receptors was determined as 3100 ± 500 nM.
